In patent US20100267561A1, “HERBICIDAL PYRIDAZINONE DERIVATIVES” (priority 2007, published 2010):

How the values were obtained:
Type in all cases: in vivo
[1] = test system: ducksalad (Heteranthera limosa); assay: Test B flooded paddy test plant response
Summary of the method: (§1)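 Compounds were added directly to paddy water over 2-leaf-stage plants in pots flooded 3 cm above soil, water depth maintained. Visual injury scored against controls after 13 to 15 days in greenhouse, 0 (none) to 100 (complete control); dash indicates no result.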

rice (Oryza sativa) = assay: Test B flooded paddy test plant response
Summary of the method: as §1

[2] = test system: umbrella sedge (Cyperus difformis); assay: Test B flooded paddy test plant response
Summary of the method: as §1

[3] = test system: windgrass (Apera spica-venti); assay: Test C pre-/postemergence plant response
Summary of the method: (§2)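 Application timings covered preemergence and postemergence (1- to 4-leaf plants, 2 to 18 cm), using a non-phytotoxic solvent mixture that included a surfactant. Controlled-environment holding lasted 15 to 25 days before visual scoring, where 100 denotes complete control and 0 no effect.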

[4] = test system: winter barley (Hordeum vulgare); assay: Test C pre-/postemergence plant response
Summary of the method: as §2

[5] = test system: downy bromegrass (Bromus tectorum); assay: Test C pre-/postemergence plant response
Summary of the method: as §2

wild oat (Avena fatua) = assay: Test C pre-/postemergence plant response
Summary of the method: as §2

[6] = test system: winter wheat (Triticum aestivum); assay: Test C pre-/postemergence plant response
Summary of the method: as §2

[7] = test system: spring barley (Hordeum vulgare); assay: Test C pre-/postemergence plant response
Summary of the method: as §2

[8] = test system: canarygrass (Phalaris minor); assay: Test C pre-/postemergence plant response; conditions: Preemergence
Summary of the method: as §2

[9] = test system: Italian ryegrass (Lolium multiflorum); assay: Test C pre-/postemergence plant response
Summary of the method: as §2

[10] = test system: blackgrass (Alopecurus myosuroides); assay: Test C pre-/postemergence plant response
Summary of the method: as §2

[11] = test system: wild mustard (Sinapis arvensis); assay: Test C pre-/postemergence plant response
Summary of the method: as §2

[12] = test system: pigweed (Amaranthus retroflexus); assay: Test C pre-/postemergence plant response
Summary of the method: as §2

[13] = test system: green foxtail (Setaria viridis); assay: Test C pre-/postemergence plant response
Summary of the method: as §2

[14] = test system: annual bluegrass (Poa annua); assay: Test C pre-/postemergence plant response
Summary of the method: as §2

[15] = test system: spring wheat (Triticum aestivum); assay: Test C pre-/postemergence plant response
Summary of the method: as §2

[16] = Flood (flooded paddy test), 62 g ai/ha, scale 0 to 100, 0 no effect, 100 complete control
[17] = Flood (flooded paddy test), 125 g ai/ha, scale 0 to 100, 0 no effect, 100 complete control
[18] = Flood (flooded paddy test), 250 g ai/ha, scale 0 to 100, 0 no effect, 100 complete control
[19] = Flood, 31 g ai/ha, scale 0 to 100
[20] = Postemergence, 8 g ai/ha, scale 0 to 100, 0 no effect, 100 complete control
[21] = Postemergence, 16 g ai/ha, scale 0 to 100, 0 no effect, 100 complete control
[22] = Postemergence, 31 g ai/ha, scale 0 to 100, 0 no effect, 100 complete control
[23] = Postemergence, 62 g ai/ha, scale 0 to 100, 0 no effect, 100 complete control
[24] = Preemergence, 8 g ai/ha, scale 0 to 100 (0 no effect, 100 complete control)
[25] = Preemergence, 16 g ai/ha, scale 0 to 100 (0 no effect, 100 complete control)
[26] = Preemergence, 31 g ai/ha, scale 0 to 100 (0 no effect, 100 complete control)
[27] = Preemergence, 62 g ai/ha, scale 0 to 100, 0 no effect, 100 complete control

CCc1cc(-c2ccc(C(F)(F)F)cc2)nn1-c1c(OS(C)(=O)=O)cnn(C)c1=O [Compound 19]
10: Plant response rating, Wheat, Winter [6, 24]
30: Plant response rating, Sedge, Umbrella [2, 16] | Plant response rating, Bromegrass, Downy [5, 24] | Plant response rating, Pigweed [12, 25]
0: Plant response rating, Ducksalad [1, 16] | Plant response rating, Ducksalad [1, 17] | Plant response rating, Ducksalad [1, 19] | Plant response rating, Rice (rice (Oryza sativa); [19]) | Plant response rating, Sedge, Umbrella [2, 19] | Plant response rating, Mustard, Wild [11, 20] | Plant response rating, Mustard, Wild [11, 24] | Plant response rating, Mustard, Wild [11, 25] | Plant response rating, Mustard, Wild [11, 26] | Plant response rating, Mustard, Wild [11, 27] | Plant response rating, Pigweed [12, 20] | Plant response rating, Pigweed [12, 21] | Plant response rating, Pigweed [12, 22] | Plant response rating, Pigweed [12, 23] | Plant response rating, Pigweed [12, 24] | Plant response rating, Bluegrass [14, 20] | Plant response rating, Bluegrass [14, 21] | Plant response rating, Bluegrass [14, 25] | Plant response rating, Wheat, Spring [15, 24]
75: Plant response rating, Barley, Winter [4, 26] | Plant response rating, Bromegrass, Downy [5, 26] | Plant response rating, Blackgrass [10, 20] | Plant response rating, Pigweed [12, 27] | Plant response rating, Wheat, Spring [15, 27]
80: Plant response rating, Windgrass [3, 20] | Plant response rating, Barley, Winter [4, 27] | Plant response rating, Oat, Wild (wild oat (Avena fatua); [26]) | Plant response rating, Wheat, Winter [6, 21] | Plant response rating, Barley, Spring [7, 27] | Plant response rating, Ryegrass, Italian [9, 24] | Plant response rating, Blackgrass [10, 24] | Plant response rating, Wheat, Spring [15, 21]
98: Plant response rating, Bromegrass, Downy [5, 22] | Plant response rating, Canarygrass ([8]; 31 g ai/ha, scale 0 to 100 (0 no effect, 100 complete control))
35: Plant response rating, Bluegrass [14, 23]
20: Plant response rating, Rice (rice (Oryza sativa); [16]) | Plant response rating, Barley, Winter [4, 20] | Plant response rating, Barley, Winter [4, 24] | Plant response rating, Wheat, Winter [6, 20] | Plant response rating, Barley, Spring [7, 20] | Plant response rating, Mustard, Wild [11, 21] | Plant response rating, Mustard, Wild [11, 22] | Plant response rating, Mustard, Wild [11, 23] | Plant response rating, Foxtail, Green [13, 24]
90: Plant response rating, Wheat, Winter [6, 22] | Plant response rating, Wheat, Winter [6, 27] | Plant response rating, Barley, Spring [7, 21] | Plant response rating, Canarygrass ([8]; 16 g ai/ha, scale 0 to 100 (0 no effect, 100 complete control)) | Plant response rating, Wheat, Spring [15, 22]
25: Plant response rating, Ducksalad [1, 18] | Plant response rating, Bluegrass [14, 22]
95: Plant response rating, Bromegrass, Downy [5, 27] | Plant response rating, Oat, Wild (wild oat (Avena fatua); [27]) | Plant response rating, Foxtail, Green [13, 20]
50: Plant response rating, Barley, Winter [4, 21] | Plant response rating, Wheat, Winter [6, 25] | Plant response rating, Barley, Spring [7, 24] | Plant response rating, Pigweed [12, 26]
60: Plant response rating, Rice (rice (Oryza sativa); [17]) | Plant response rating, Sedge, Umbrella [2, 17] | Plant response rating, Wheat, Winter [6, 26] | Plant response rating, Ryegrass, Italian [9, 20] | Plant response rating, Wheat, Spring [15, 26]
100: Plant response rating, Windgrass [3, 21] | Plant response rating, Windgrass [3, 22] | Plant response rating, Windgrass [3, 23] | Plant response rating, Windgrass [3, 24] | Plant response rating, Windgrass [3, 25] | Plant response rating, Windgrass [3, 26] | Plant response rating, Windgrass [3, 27] | Plant response rating, Barley, Winter [4, 22] | Plant response rating, Barley, Winter [4, 23] | Plant response rating, Bromegrass, Downy [5, 23] | Plant response rating, Oat, Wild (wild oat (Avena fatua); [20]) | Plant response rating, Oat, Wild (wild oat (Avena fatua); [21]) | Plant response rating, Oat, Wild (wild oat (Avena fatua); [22]) | Plant response rating, Oat, Wild (wild oat (Avena fatua); [23]) | Plant response rating, Wheat, Winter [6, 23] | Plant response rating, Barley, Spring [7, 22] | Plant response rating, Barley, Spring [7, 23] | Plant response rating, Canarygrass ([8]; 62 g ai/ha, scale 0 to 100, 0 no effect, 100 complete control) | Plant response rating, Ryegrass, Italian [9, 21] | Plant response rating, Ryegrass, Italian [9, 22] | Plant response rating, Ryegrass, Italian [9, 23] | Plant response rating, Ryegrass, Italian [9, 25] | Plant response rating, Ryegrass, Italian [9, 26] | Plant response rating, Ryegrass, Italian [9, 27] | Plant response rating, Blackgrass [10, 21] | Plant response rating, Blackgrass [10, 22] | Plant response rating, Blackgrass [10, 23] | Plant response rating, Blackgrass [10, 25] | Plant response rating, Blackgrass [10, 26] | Plant response rating, Blackgrass [10, 27] | Plant response rating, Foxtail, Green [13, 21] | Plant response rating, Foxtail, Green [13, 22] | Plant response rating, Foxtail, Green [13, 23] | Plant response rating, Foxtail, Green [13, 25] | Plant response rating, Foxtail, Green [13, 26] | Plant response rating, Foxtail, Green [13, 27] | Plant response rating, Wheat, Spring [15, 23]
40: Plant response rating, Barley, Winter [4, 25] | Plant response rating, Bromegrass, Downy [5, 20] | Plant response rating, Wheat, Spring [15, 25]
70: Plant response rating, Rice (rice (Oryza sativa); [18]) | Plant response rating, Sedge, Umbrella [2, 18] | Plant response rating, Wheat, Spring [15, 20]
65: Plant response rating, Bromegrass, Downy [5, 21] | Plant response rating, Bromegrass, Downy [5, 25] | Plant response rating, Oat, Wild (wild oat (Avena fatua); [24]) | Plant response rating, Oat, Wild (wild oat (Avena fatua); [25]) | Plant response rating, Barley, Spring [7, 25] | Plant response rating, Barley, Spring [7, 26] | Plant response rating, Canarygrass ([8]; 8 g ai/ha, scale 0 to 100 (0 no effect, 100 complete control))
